Drawing on BindingDB's records for patent US11945784 (Cornell University, 2024), this text covers IC50 for 17 molecules.

Each structure is given as a SMILES string. Some results are limits rather than exact numbers.

In the assay the target is Serine/threonine-protein kinase/endoribonuclease IRE1 (Homo sapiens, UniProt O75460). As to the kind of experiment: In Vitro FRET Assay. The procedure: In vitro FRET assay was performed to evaluate the ability of select compounds to inhibit IRE1, the results of which are summarized in Table 3. To perform the in vitro FRET assay, 1× complete assay buffer (CAB; […], 50 mM sodium citrate pH 7.15, 1 mM magnesium acetate, 0.02% tween 20) was used to dilute SignalChem IRE1α protein to a final concentration of 2 nM. Selected compounds were serially diluted with DMSO in a non-binding black 384-well plate for a total of 15 ul in each well. 2 ul of the serially diluted compound or DMSO control were then added to new wells containing 98 ul of 1×CAB, for a total volume of 100 ul, 10 ul of which were then transferred to wells of a new plate. 5 ul of the diluted IRE1α was then added to each well. 5 ul of a […] was then added to each well. Fluorescence was then read over 30 minutes in kinetic mode (485/515 nm).Two RNA probes were used, XBP1 wildtype (SEQ ID NO: 2) which is able to be spliced by active IRE1α or XBP1 mutant (SEQ ID NO: 3) which is unable to be spliced. Each probe contained a 5′ 6-FAM modification and a 3′ IOWA Black FQ modification.A second FRET assay was performed to assess ATP-mediated inhibition. In this case, compounds and IRE1α were prepared and combined as discussed above, with the addition of ATP up to 1 mM final concentration. This mixture was incubated at room temperature for 60 minutes and then 5 ul of 400 nM XBP1 wildtype or mutant RNA probe was added. Plates were then read over 30 minutes in kinetic mode (485/515 nm) and rate of fluorescence increase calculated for different compound dilutions to determine IC50.
Chain of Serine/threonine-protein kinase/endoribonuclease IRE1 (O75460 whole entry): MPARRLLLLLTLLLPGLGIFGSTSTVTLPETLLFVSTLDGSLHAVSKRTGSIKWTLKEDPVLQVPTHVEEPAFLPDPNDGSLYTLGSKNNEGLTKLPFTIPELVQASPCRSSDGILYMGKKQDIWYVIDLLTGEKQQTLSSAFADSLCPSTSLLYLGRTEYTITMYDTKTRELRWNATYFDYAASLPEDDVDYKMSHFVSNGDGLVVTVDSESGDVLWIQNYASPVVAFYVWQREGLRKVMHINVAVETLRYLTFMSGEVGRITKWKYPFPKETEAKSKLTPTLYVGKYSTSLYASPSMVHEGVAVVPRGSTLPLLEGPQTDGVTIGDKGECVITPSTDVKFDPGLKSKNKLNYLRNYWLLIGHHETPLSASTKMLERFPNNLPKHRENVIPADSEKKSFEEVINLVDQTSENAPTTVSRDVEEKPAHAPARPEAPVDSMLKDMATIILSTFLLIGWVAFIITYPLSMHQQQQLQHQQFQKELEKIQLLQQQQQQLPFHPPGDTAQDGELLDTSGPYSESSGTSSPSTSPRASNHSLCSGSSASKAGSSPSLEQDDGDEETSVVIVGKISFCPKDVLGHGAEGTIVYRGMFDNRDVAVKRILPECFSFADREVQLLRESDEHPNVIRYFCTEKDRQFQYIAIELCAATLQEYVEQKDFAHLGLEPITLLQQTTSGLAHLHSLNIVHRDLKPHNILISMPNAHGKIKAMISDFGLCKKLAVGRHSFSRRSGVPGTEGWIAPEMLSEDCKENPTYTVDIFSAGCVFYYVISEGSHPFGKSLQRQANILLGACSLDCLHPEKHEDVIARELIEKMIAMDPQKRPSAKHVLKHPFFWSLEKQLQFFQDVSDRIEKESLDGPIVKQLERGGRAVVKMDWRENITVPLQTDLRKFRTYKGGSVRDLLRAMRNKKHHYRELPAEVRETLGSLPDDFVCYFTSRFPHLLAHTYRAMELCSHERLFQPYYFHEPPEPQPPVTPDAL

The IC50 is the point on the concentration scale where inhibition reaches its midpoint. `Cc1nc(NS(=O)(=O)c2ccccc2Cl)c(F)cc1/C=C/c1cnc(NC2CCC(N)CC2)nc1` (configuration not stated) [US11945784, Compound 58] had a half-inhibitory concentration (IC50) of less than 1 nM.

Consider `CN(C)C1CCC(Nc2ncc(/C=C/c3ccc(NS(=O)(=O)c4cccc(F)c4Cl)nc3)cn2)CC1` (configuration not stated) [US11945784, Compound 68], for which the half-maximal inhibitory concentration (IC50) is less than 1 nM. `NC1CCC(Nc2ncc(/C=C/c3ccc(NS(=O)(=O)c4ccccc4Cl)nn3)cn2)CC1` (configuration not stated) [US11945784, Compound 2]: the IC50 is less than 1 nM.

Turning to `COc1nc(NS(=O)(=O)c2ccccc2Cl)ccc1/C=C/c1cnc(NC2CCC(N3CCOCC3)CC2)nc1` (configuration not stated) [US11945784, Compound 57], the IC50 was less than 1 nM. `COc1nc(NS(=O)(=O)c2cnccc2Cl)ccc1/C=C/c1cnc(NC2CCC(N(C)C)CC2)nc1` (configuration not stated) [US11945784, Compound 56] showed a 50% inhibitory concentration (IC50) of less than 1 nM. `CN(C)C1CCC(Nc2ncc(/C=C/c3ccc(NS(=O)(=O)c4ccccc4Cl)nn3)cn2)CC1` (configuration not stated) [US11945784, Compound 52] displayed a 50% inhibitory concentration (IC50) of less than 1 nM. In the case of `CN(C)C1CCC(Nc2ncc(/C=C/c3ccc(NS(=O)(=O)c4cccc(Cl)c4Cl)nc3)cn2)CC1` (configuration not stated) [US11945784, Compound 63] it was less than 1 nM.

`COc1cc(NS(=O)(=O)c2cnccc2Cl)ccc1/C=C/c1cnc(NC2CCC(N(C)C)CC2)nc1` (configuration not stated) [US11945784, Compound 65]: the half-inhibitory concentration (IC50) is less than 1 nM.

For `CN(C)C1CCC(Nc2ncc(/C=C/c3ccc(NS(=O)(=O)c4ccc(F)cc4Cl)nc3)cn2)CC1` (configuration not stated) [US11945784, Compound 61], the IC50 was less than 1 nM.

For `Cc1nc(NS(=O)(=O)c2cnccc2Cl)ccc1/C=C/c1cnc(NC2CCC(N(C)C)CC2)nc1` (configuration not stated) [US11945784, Compound 62], the IC50 was less than 1 nM. In turn, `COc1nc(NS(=O)(=O)c2ccccc2Cl)ccc1/C=C/c1cnc(NC2CCC(N3CCCCC3)CC2)nc1` (configuration not stated) [US11945784, Compound 60] returned an IC50 of less than 1 nM.

The molecule `COc1c(/C=C/c2cnc(NC3CCC(N(C)C)CC3)nc2)ccc(NS(=O)(=O)c2ccccc2Cl)c1F` (configuration not stated) [US11945784, Compound 66] showed an IC50 of less than 1 nM.

For `COc1nc(NS(=O)(=O)c2ccccc2Cl)c(F)cc1/C=C/c1cnc(NC2CCC(N)CC2)nc1` (configuration not stated) [US11945784, Compound 54], the IC50 was less than 1 nM. Molecule `COc1cc(NS(=O)(=O)c2ccccc2Cl)c(F)cc1/C=C/c1cnc(NC2CCC(N(C)C)CC2)nc1` (configuration not stated) [US11945784, Compound 67] gave a half-inhibitory concentration (IC50) of less than 1 nM. With `COc1nc(NS(=O)(=O)c2ccccc2Cl)ccc1/C=C/c1cnc(NC2CCC(N3CCSCC3)CC2)nc1` (configuration not stated) [US11945784, Compound 64] the figure was less than 1 nM; with `NC1CCC(Nc2ncc(/C=C/c3ccc(NS(=O)(=O)c4ccccc4Cl)c(F)c3)cn2)CC1` (configuration not stated) [US11945784, Compound 3], less than 1 nM. For `CNC1CCC(Nc2ncc(/C=C/c3cc(F)c(NS(=O)(=O)c4ccccc4Cl)nc3OC)cn2)CC1` (configuration not stated) [US11945784, Compound 59], the IC50 was less than 1 nM.
